Read-outs that look alike come from different tables or passages of the source.
What was measured:
[1] = target: Mycobacterium tuberculosis 20S peptidase (mtb 20S) (Mycobacterium tuberculosis, UniProt P9WHT9)
[2] = test system: 60 different human tumor cell lines; type: cell-based
Excerpt: The In Vitro Cell Line Screening Project (IVCLSP) is a dedicated service providing direct support to the DTP anticancer drug discovery program. The screen utilizes 60 different human tumor cell lines, representing leukemia, melanoma and cancers of the lung, colon, brain, ovary, breast, prostate, and kidney. IVCLSP is unique because the complexity of a 60 cell line dose response produced by a given compound results in a biological response pattern, which can be utilized in pattern recognition algorithms. Using the pattern recognition algorithms, it is possible to assign a putative mechanism of action to a test compound, or to determine that the response pattern is unique and not similar to that of any of the standard prototype compounds included in the NCI database. The methodology of the in vitro cancer screen is available from the NIH.

[3] = test system: non-heme chloroperoxidase SCO0456 gene transcription; test: Peroxidase gene (SCO0456) transcription assay of proteasome inhibition in S. coelicolor; type: cell-based, Streptomyces coelicolor; conditions: for transcription of the proteasome-dependent peroxidase gene: S. coelicolor wild-type, RT-PCR / reporter
mycobacterial proteasome = mycobacterial proteasome (Mycobacterium tuberculosis, UniProt P9WHT9); conditions: cited from earlier work
Sequence of mycobacterial proteasome (P9WHT9 58-291): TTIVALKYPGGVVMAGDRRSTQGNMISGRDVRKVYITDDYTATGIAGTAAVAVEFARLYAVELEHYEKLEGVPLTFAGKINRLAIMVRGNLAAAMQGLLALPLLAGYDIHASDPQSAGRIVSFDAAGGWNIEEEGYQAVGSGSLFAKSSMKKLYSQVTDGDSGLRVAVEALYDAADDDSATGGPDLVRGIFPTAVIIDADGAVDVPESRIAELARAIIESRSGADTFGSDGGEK
Sequence of mycobacterial proteasome (P9WHU1 whole entry partner): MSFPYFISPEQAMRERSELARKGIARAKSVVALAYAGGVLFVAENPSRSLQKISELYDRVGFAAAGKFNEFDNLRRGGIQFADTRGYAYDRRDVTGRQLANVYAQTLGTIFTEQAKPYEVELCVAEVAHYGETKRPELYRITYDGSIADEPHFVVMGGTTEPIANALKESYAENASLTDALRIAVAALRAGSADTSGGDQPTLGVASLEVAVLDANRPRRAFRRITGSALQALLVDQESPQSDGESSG

Sequence of Mycobacterium tuberculosis 20S peptidase (mtb 20S) (P9WHT9 58-291): as the sequence (P9WHT9 58-291) above
Sequence of Mycobacterium tuberculosis 20S peptidase (mtb 20S) (P9WHU1 whole entry partner): as the sequence (P9WHU1 whole entry partner) above

Structure (SMILES) | IC50 [1] | selective inhibition of M. tuberculosis proteasome compared to human proteasome (in words, from ratio of IC50 values) [1] | selectivity for the mycobacterial proteasome compared to the human enzyme [1] | selectivity of M. tuberculosis proteasome inhibition compared to Syringolin B [1] | transcription of the proteasome-dependent peroxidase gene [3] | inhibition of proteasomes (in words) (mycobacterial proteasome) | other results
COC(=O)C(NC(=O)N1CCCC1C(=O)NC1CCCCNC(=O)C=CC(Cc2c[nH]c3ccccc23)NC1=O)C(C)C (stereo not drawn) [Compound O] | 2.67 µM | selectively inhibits | 13.4 fold | more than 1,900 times |  |  | 
COC(=O)C(NC(=O)NCC(=O)NC1CCCCNC(=O)C=CC(Cc2c[nH]c3ccccc23)NC1=O)C(C)C (stereo not drawn) [Compound P] | 0.000114 µM | selectively inhibits | 45.6 fold | more than 6,500 times | induced transcription of the peroxidase reporter gene |  | selectivity for M. tuberculosis proteasome than human proteasome [1]: 46 times; toxicity to human cells [2]: not toxic to human cells; killing of cancer cells ([2]; 60 cancer cell lines): does not kill cancer cells; inhibition of cancer cell proteasomes ([2]; inferred from 60 cell line screen): does not inhibit cancer cell proteasomes
CCCCCCCCC[C@@H](O)CC(=O)N[C@@H](CC(N)=O)C(=O)N[C@@H](CCC(N)=O)C(=O)N[C@H](C=O)CC(C)C [Fellutamide B] |  |  |  |  |  | inhibit the mycobacterial proteasomes | 
CC(C)C1/C=C\C(=O)NCCCCC(NC(=O)C(NC(=O)NC(C(=O)O)C(C)C)C(C)C)C(=O)N1 (stereo not drawn) [Syringolin B] |  |  |  |  |  |  | SCO0456 expression (gel electrophoresis of RNA samples) ([3]; wild-type S. coelicolor, 150 μg/ml, 5 hours, 30° C.): up regulated
CC(C)C[C@H](NC(=O)[C@H](Cc1ccccc1)NC(=O)c1cnccn1)B(O)O [bortezomib, Bortezomib] |  |  |  |  | significantly up-regulated | inhibit the mycobacterial proteasomes | inhibition of proteasomes (in words) (mycobacterial proteasome; listed as Bortezomib): inhibits both bacterial and human proteasomes

Reference: US20160130257A1, “Macrocyclic proteasome inhibitors” (BROWN UNIVERSITY, priority 2013, published 2016)
